The test system of the experiment is PC3 cells. Description: NAMPT Cell Proliferation Assay (Cell Titer Glo; also performed in the presence of 0.3 mM nicotinamide mononucleotide). Format: cell-based. The settings on record: Homo sapiens, PC-3, 120 h, 5 days incubation, cell viability by Cell Titer Glo. The protocol:
NAMPT Cell Proliferation Assay
PC3 cells were seeded in 96-well black plates (Corning #3904) at 500 cells/well in 90 μl of RPMI media containing 10% heat-inactivated FBS and incubated overnight at 37° C. and 5% CO2 to allow cells to attach to wells. The following day, test compounds were serially diluted in neat DMSO to 1000× final concentrations prior to dilution with RPMI media to 10× and 1% DMSO. Ten μL of the 10× compounds were then transferred to wells containing cells to produce a dose response of 10-fold dilutions from 10 μM to 1×10^−5 μM. Cells were incubated for 5 days at 37° C. and 5% CO2, then cell viability was measured using Cell Titer Glo reagent (Promega #G7571). Percent inhibition values were calculated and fitted to a sigmoidal dose response curves using Assay Explorer software to determine IC50s.

The results in this text go back to patent US8975398B2, “NAMPT inhibitors” (AbbVie Inc., priority 2012, dated 2015).

Usually IC50 stands for the midpoint of a concentration-inhibition curve.

Consider `O=C(Nc1ccc(C2CCN(C(=O)c3cccc(F)c3)CC2)c(F)c1)C1CN(c2cccnn2)C1` [Example 879, N-{3-fluoro-4-[1-(3-fluorobenzoyl)piperidin-4-yl]phenyl}-1-(pyridazin-3-yl)azetidine-3-carboxamide], for which the IC50 is 5.83 nM.
The value for `CC(C)C(=O)N1CCC(c2ccc(NC(=O)C3CN(c4cccnn4)C3)cc2F)CC1` [Example 880, N-{3-fluoro-4-[1-(2-methylpropanoyl)piperidin-4-yl]phenyl}-1-(pyridazin-3-yl)azetidine-3-carboxamide] was 15.4 nM; that for `O=C(Nc1ccc(C2CCN(C(=O)CC(F)(F)F)CC2)c(F)c1)C1CN(c2cccnn2)C1` [Example 881, N-{3-fluoro-4-[1-(3,3,3-trifluoropropanoyl)piperidin-4-yl]phenyl}-1-(pyridazin-3-yl)azetidine-3-carboxamide] was 8.18 nM.
The value for `CC(C)(C)CC(=O)N1CCC(c2ccc(NC(=O)C3CN(c4cccnn4)C3)cc2F)CC1` [Example 882, N-{4-[1-(3,3-dimethylbutanoyl)piperidin-4-yl]-3-fluorophenyl}-1-(pyridazin-3-yl)azetidine-3-carboxamide] was 6.43 nM.
Consider `O=C(Nc1ccc(C2CCN(C(=O)CCC(F)(F)F)CC2)c(F)c1)C1CN(c2cccnn2)C1` [Example 883, N-{3-fluoro-4-[1-(4,4,4-trifluorobutanoyl)piperidin-4-yl]phenyl}-1-(pyridazin-3-yl)azetidine-3-carboxamide], for which the IC50 came out at 30.9 nM.
The value for `O=C(Nc1ccc(C2CCN(C(=O)c3ccccc3)CC2)c(F)c1)C1CN(c2cccnn2)C1` [Example 884, N-[4-(1-benzoylpiperidin-4-yl)-3-fluorophenyl]-1-(pyridazin-3-yl)azetidine-3-carboxamide] was 2.75 nM; that for `O=C(Nc1ccc(C2CCN(C(=O)c3ccccc3F)CC2)c(F)c1)C1CN(c2cccnn2)C1` [Example 885, N-{3-fluoro-4-[1-(2-fluorobenzoyl)piperidin-4-yl]phenyl}-1-(pyridazin-3-yl)azetidine-3-carboxamide] was 1.63 nM; that for `CC(C)(C)C(=O)N1CCC(c2ccc(NC(=O)C3CN(c4cccnn4)C3)cc2F)CC1` [Example 886, N-{4-[1-(2,2-dimethylpropanoyl)piperidin-4-yl]-3-fluorophenyl}-1-(pyridazin-3-yl)azetidine-3-carboxamide] was 7.66 nM.
The value for `CC(C)CC(=O)N1CCC(c2ccc(NC(=O)C3CN(c4cccnn4)C3)cc2F)CC1` [Example 887, N-{3-fluoro-4-[1-(3-methylbutanoyl)piperidin-4-yl]phenyl}-1-(pyridazin-3-yl)azetidine-3-carboxamide] was 8.47 nM; that for `O=C(Nc1ccc(C2CCN(C(=O)CC3CC3)CC2)c(F)c1)C1CN(c2cccnn2)C1` [Example 888, N-{4-[1-(cyclopropylacetyl)piperidin-4-yl]-3-fluorophenyl}-1-(pyridazin-3-yl)azetidine-3-carboxamide] was 9.76 nM; that for `O=C(Nc1ccc(C2(O)CCN(C(=O)c3ccccc3F)CC2)cc1)C1CN(c2cccnn2)C1` [Example 889, N-{4-[1-(2-fluorobenzoyl)-4-hydroxypiperidin-4-yl]phenyl}-1-(pyridazin-3-yl)azetidine-3-carboxamide] was 2.85 nM.
As to `CC(C)(C)C(=O)N1CCC(O)(c2ccc(NC(=O)C3CN(c4cccnn4)C3)cc2)CC1` [Example 890, N-{4-[1-(2,2-dimethylpropanoyl)-4-hydroxypiperidin-4-yl]phenyl}-1-(pyridazin-3-yl)azetidine-3-carboxamide], the IC50 is 4.09 nM.
The value for `Cc1ccc(N2CC(C(=O)Nc3ccc(-c4cnn(CC5(C)CCOCC5)c4)cc3)C2)nn1` [Example 891, 1-(6-methylpyridazin-3-yl)-N-(4-{1-[(4-methyltetrahydro-2H-pyran-4-yl)methyl]-1H-pyrazol-4-yl}phenyl)azetidine-3-carboxamide] was 65.6 nM.
The value for `Cc1ccc(N2CC[C@H](C(=O)Nc3ccc(C4CCN(C(=O)c5ccccc5F)CC4)cc3)C2)nn1` [Example 892, (3S)—N-{4-[1-(2-fluorobenzoyl)piperidin-4-yl]phenyl}-1-(6-methylpyridazin-3-yl)pyrrolidine-3-carboxamide] was 146 nM.
For the compound `Cc1ccc(N2CC[C@H](C(=O)Nc3ccc(C4CCN(C(=O)c5ccccc5)CC4)cc3)C2)nn1` [Example 893, (3S)—N-[4-(1-benzoylpiperidin-4-yl)phenyl]-1-(6-methylpyridazin-3-yl)pyrrolidine-3-carboxamide], the IC50 came out at 681 nM.
To `Cc1ccc(N2CC[C@H](C(=O)Nc3ccc(C4CCN(C(=O)C(C)(C)C)CC4)cc3)C2)nn1` [Example 894, (3S)—N-{4-[1-(2,2-dimethylpropanoyl)piperidin-4-yl]phenyl}-1-(6-methylpyridazin-3-yl)pyrrolidine-3-carboxamide] belongs 752 nM; to `O=C(Nc1ccc(CC2CCN(C(=O)c3ccccc3)CC2)cc1)C1CN(c2cccnn2)C1` [Example 895, N-{4[(1-benzoylpiperidin-4-yl)methyl]phenyl}-1-(pyridazin-3-yl)azetidine-3-carboxamide], 2.15 nM; to `O=C(Nc1ccc(CC2CCN(C(=O)c3ccccc3F)CC2)cc1)C1CN(c2cccnn2)C1` [Example 896, N-(4-{[1-(2-fluorobenzoyl)piperidin-4-yl]methyl}phenyl)-1-(pyridazin-3-yl)azetidine-3-carboxamide], 1.09 nM.
On to `CC(C)(C)C(=O)N1CCC(Cc2ccc(NC(=O)C3CN(c4cccnn4)C3)cc2)CC1` [Example 897, N-(4-{[1-(2,2-dimethylpropanoyl)piperidin-4-yl]methyl}phenyl)-1-(pyridazin-3-yl)azetidine-3-carboxamide], for which the IC50 was found to be 1.56 nM.
To `CC(C)(C)CC(=O)N1CCC(Cc2ccc(NC(=O)C3CN(c4cccnn4)C3)cc2)CC1` [Example 898, N-(4-{[1-(3,3-dimethylbutanoyl)piperidin-4-yl]methyl}phenyl)-1-(pyridazin-3-yl)azetidine-3-carboxamide] belongs 0.851 nM.
The value for `CCC(CC)C(=O)N1CCC(Cc2ccc(NC(=O)C3CN(c4cccnn4)C3)cc2)CC1` [Example 899, N-(4-{[1-(2-ethylbutanoyl)piperidin-4-yl]methyl}phenyl)-1-(pyridazin-3-yl)azetidine-3-carboxamide] was 0.401 nM.
To `O=C(Nc1ccc(CC2CCN(C(=O)CCC(F)(F)F)CC2)cc1)C1CN(c2cccnn2)C1` [Example 900, 1-(pyridazin-3-yl)-N-(4-{[1-(4,4,4-trifluorobutanoyl)piperidin-4-yl]methyl}phenyl)azetidine-3-carboxamide] belongs 2.24 nM; to `CC(C)C(=O)N1CCC(Cc2ccc(NC(=O)C3CN(c4cccnn4)C3)cc2)CC1` [Example 901, N-(4-{[1-(2-methylpropanoyl)piperidin-4-yl]methyl}phenyl)-1-(pyridazin-3-yl)azetidine-3-carboxamide], 2.07 nM; to `CC(=O)N1CCC(Cc2ccc(NC(=O)C3CN(c4cccnn4)C3)cc2)CC1` [Example 902, N-{4-[(1-acetylpiperidin-4-yl)methyl]phenyl}-1-(pyridazin-3-yl)azetidine-3-carboxamide], 6.45 nM.
For `CC[C@H](C)C(=O)N1CCC(Cc2ccc(NC(=O)C3CN(c4cccnn4)C3)cc2)CC1` [Example 903, N-[4-({1-[(2S)-2-methylbutanoyl]piperidin-4-yl}methyl)phenyl]-1-(pyridazin-3-yl)azetidine-3-carboxamide], the IC50 came out at 0.618 nM.
The value for `CC1(C(=O)N2CCC(Cc3ccc(NC(=O)C4CN(c5cccnn5)C4)cc3)CC2)CC1` [Example 904, N-[4-({1-[(1-methylcyclopropyl)carbonyl]piperidin-4-yl}methyl)phenyl]-1-(pyridazin-3-yl)azetidine-3-carboxamide] was 1.95 nM.
For the compound `Cc1ccc(N2CC(C(=O)Nc3ccc(-c4cnn(CC5(C)CCN(C6COC6)CC5)c4)cc3)C2)nn1` [Example 905, N-[4-(1-{[4-methyl-1-(oxetan-3-yl)piperidin-4-yl]methyl}-1H-pyrazol-4-yl)phenyl]-1-(6-methylpyridazin-3-yl)azetidine-3-carboxamide], the IC50 came out at 13.3 nM.
As for `Cc1ccnnc1N1CC(C(=O)Nc2ccc(C3CCN(C(=O)c4ccccc4)CC3)cc2)C1` [Example 906, N-[4-(1-benzoylpiperidin-4-yl)phenyl]-1-(4-methylpyridazin-3-yl)azetidine-3-carboxamide], the IC50 is 0.879 nM.
In the case of `O=C(N[C@H]1CCN(c2cccnn2)C1)c1ccc(C2CCN(C(=O)c3ccccc3F)CC2)o1` [Example 907, 5-[1-(2-fluorobenzoyl)piperidin-4-yl]-N-[(3S)-1-(pyridazin-3-yl)pyrrolidin-3-yl]furan-2-carboxamide], the IC50 was 6750 nM.
To `Cc1nnccc1N1CC(C(=O)Nc2ccc(C3CCN(C(=O)c4ccccc4)CC3)cc2)C1` [Example 908, N-[4-(1-benzoylpiperidin-4-yl)phenyl]-1-(3-methylpyridazin-4-yl)azetidine-3-carboxamide] belongs 92.5 nM; to `Cc1nnccc1N1CC(C(=O)Nc2ccc(C3CCN(C(=O)c4ccccc4F)CC3)cc2)C1` [Example 909, N-{4-[1-(2-fluorobenzoyl)piperidin-4-yl]phenyl}-1-(3-methylpyridazin-4-yl)azetidine-3-carboxamide], 67 nM; to `Nc1ncccc1C(=O)N1CCC(c2ccc(NC(=O)C3CN(c4cccnn4)C3)cc2)CC1` [Example 910, N-(4-{1-[(2-aminopyridin-3-yl)carbonyl]piperidin-4-yl}phenyl)-1-(pyridazin-3-yl)azetidine-3-carboxamide], 6.51 nM.
